Test results reported in patent publication US7777047B2, “Indole compound” (Takeda Pharmaceutical Company Limited, priority 2006, dated 2010).

Biological target: T1, GST-hLGK1 (human liver GK) (Homo sapiens, UniProt P35557)
T1 construct: made in house; host or cells: Escherichia coli BL21 (Stratagene), plasmid pGEX6P-2/hLGK1
T1 sequence (P35557 1-464 isoform P35557-3): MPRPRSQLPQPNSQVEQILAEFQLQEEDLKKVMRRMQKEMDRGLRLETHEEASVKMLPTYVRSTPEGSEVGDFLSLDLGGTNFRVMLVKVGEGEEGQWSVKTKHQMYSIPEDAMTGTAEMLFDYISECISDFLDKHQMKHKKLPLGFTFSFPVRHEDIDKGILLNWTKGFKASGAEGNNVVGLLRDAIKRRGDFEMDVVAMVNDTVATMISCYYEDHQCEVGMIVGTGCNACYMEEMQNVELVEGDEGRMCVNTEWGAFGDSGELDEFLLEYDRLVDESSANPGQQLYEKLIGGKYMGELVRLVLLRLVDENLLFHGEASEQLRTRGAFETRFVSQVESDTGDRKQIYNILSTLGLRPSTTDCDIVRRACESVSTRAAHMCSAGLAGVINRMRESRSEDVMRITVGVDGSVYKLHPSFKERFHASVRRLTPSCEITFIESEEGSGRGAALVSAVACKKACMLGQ
Assay: Determination of GK activity value (GST-hLGK1, Mant-ATP, capillary electrophoresis)
Assay type: biochemical
Conditions: glucokinase activation; GST-hLGK1, D-glucose, 37° C. for 60 min; concentration at midpoint between maximum activity value and control group activity value
Method: Plasmid DNA to be used for the expression of a protein (GST-hLGK1) containing GST (Glutathione S-transferase) added to the amino terminal of human liver GK in Escherichia coli was prepared as follows.
BL21 strain (Stratagene) transformed with pGEX6P-2/hLGK1 obtained in Reference Example 1A was cultured with shaking at 37° C. for 14 hr in a 200 ml Erlenmeyer flask containing 50 ml of 100 μg/ml ampicillin-containing LB medium. The culture medium (25 ml) was diluted with 225 ml of 100 μg/ml ampicillin-containing LB medium, and further cultured with shaking at 37° C. for 1 hr in a 1 L Erlenmeyer flask. After culture, the Erlenmeyer flask was cooled on ice, 125 μL of 100 mM isopropyl-thio-β-D-galactopyranoside (IPTG) was added (final concentration 50 μM), and cultured at 17° C. for 20 hr. The culture medium was centrifuged, and the obtained fungus was disrupted by ultrasonication. The object protein (GST-hLGK1) was purified from the supernatant using Glutathione Sepharose 4B (Amersham Biosciences K.K.).
A solution (5 μL) of test compound in 50% dimethyl sulfoxide was added to each well of 384 well black plate (Nalge Nunc International K.K.). Then, a solution ([…]) obtained by diluting GST-hLGK1 obtained in Reference Example 2A with measurement buffer (containing 50 mM HEPES (pH 7.4), 200 mM KCl, 5 mM MgCl2, 2.5 mM DTT and 50 μM 2′-(or-3′)-O—(N-methylanthraniloyl)adenosine 5′-triphosphate (Mant-ATP) (Jena Bioscience GmbH)) to 6 μg/mL was added to each well.
Each well was stood at 37° C. for 10 min, and 25 mM D-glucose solution (10 μL) was added to start the reaction.
Each well after the reaction was stood at 37° C. for 60 min, and the reaction was quenched by adding 25 μL of a quenching solution (containing 200 mM HEPES (pH 7.4), 20 mM MgCl2, 200 mM EDTA, 0.03% Triton-X 100, 0.3% Coating 3 reagent (Caliper Life Sciences, Inc.)).
2′-(or-3′)-O—(N-methylanthraniloyl)adenosine 5′-triphosphate (Mant-ATP, substrate) and Mant-ADP (reaction resultant product) were separated from each well after the reaction by a microchip type capillary electrophoresis apparatus 250 HTS (Caliper Life Sciences, Inc.). The reaction rate [(reaction resultant product peak height)/(reaction resultant product peak height+substrate peak height)×100(%)] was calculated from the ratio of the substrate peak height and reaction resultant product peak height obtained by fluorescence detection (excitation wavelength 355 nm, measurement wavelength 460 nm) and used as the index of GK activity.
As a control group, the reaction rate was calculated in the same manner as above except that “solution in 50% dimethyl sulfoxide (without test compound)” was used instead of “solution of test compound in 50% dimethyl sulfoxide”.
A concentration dependency curve of the test compound was drawn with the percentage obtained by dividing the reaction rate of the well added with the test compound (test compound addition group) by the reaction rate of the control group was taken as the GK activity value of the test compound, and the concentration of the test compound at the midpoint between the maximum activity value of the test compound addition group and the control group activity value is shown as EC50 value.

Structure (SMILES)	EC50 [nM]
CC(=O)N1CCN(CC2CN=C(c3cc4cccc(N(C)S(=O)(=O)c5cccs5)c4[nH]3)S2)CC1 (stereo not drawn) [Example 218, N-(2-{5-[(4-acetylpiperazin-1-yl)methyl]-4,5-dihydro-1,3-thiazol-2-yl}-1H-indol-7-yl)-N-methylthiophene-2-sulfonamide]	180
COCCOc1cc(N(C)S(=O)(=O)c2ccccn2)c2[nH]c(C3=NCC(CN4CC[S+]([O-])CC4)S3)cc2c1 (single isomer, unassigned) [Example 398, N-(5-(2-methoxyethoxy)-2-{5-[(1-oxidothiomorpholino)methyl]-4,5-dihydro-1,3-thiazol-2-yl}-1H-indol-7-yl)-N-methylpyridine-2-sulfonamide]	210
CN(c1cccc2cc(C3=NCC4(CCOCC4)S3)[nH]c12)S(=O)(=O)c1cccs1 [Example 243, N-methyl-N-[2-(8-oxa-1-thia-3-azaspiro[4.5]dec-2-en-2-yl)-1H-indol-7-yl]thiophene-2-sulfonamide]	24
CC(=O)N1CCN(Cc2cnc(-c3cc4c(Cl)ccc(N(C)S(=O)(=O)c5cccs5)c4[nH]3)s2)CC1 [Example 191, N-(2-{5-[(4-acetylpiperazin-1-yl)methyl]-1,3-thiazol-2-yl}-4-chloro-1H-indol-7-yl)-N-methylthiophene-2-sulfonamide]	31
COCCOc1cc(N(C)S(=O)(=O)c2ccccn2)c2[nH]c(C3=N[C@H](CO)CS3)cc2c1 [Example 253, N-[2-[(4R)-4-(hydroxymethyl)-4,5-dihydro-1,3-thiazol-2-yl]-5-(2-methoxyethoxy)-1H-indol-7-yl]-N-methylpyridine-2-sulfonamide]	210
CN(c1cccc2cc(C3=NCC(CN4CCOCC4)S3)[nH]c12)S(=O)(=O)c1cccs1 (single isomer, unassigned) [Example 274, N-methyl-N-{2-[5-(morpholinomethyl)-4,5-dihydro-1,3-thiazol-2-yl]-1H-indol-7-yl}thiophene-2-sulfonamide]	81
CN(c1cccc2cc(C3=NCC(C(C)(C)O)S3)[nH]c12)S(=O)(=O)c1cccs1 (stereo not drawn) [Example 226, N-{2-[5-(1-hydroxy-1-methylethyl)-4,5-dihydro-1,3-thiazol-2-yl]-1H-indol-7-yl}-N-methylthiophene-2-sulfonamide]	53

Continued by falling EC50, values first:

EC50 [nM]	Structure (SMILES)
250	CCN(c1cccc2cc(-c3ncc(CN4CCn5cnnc5C4)s3)[nH]c12)S(=O)(=O)c1cccs1 [Example 236, N-{2-[5-(5,6-dihydro[1,2,4]triazolo[4,3-a]pyrazin-7(8H)-ylmethyl)-1,3-thiazol-2-yl]-1H-indol-7-yl}-N-ethylthiophene-2-sulfonamide]
210	CN(C)C(=O)CN1CCN(Cc2cnc(-c3cc4cccc(N(C)S(=O)(=O)c5cccs5)c4[nH]3)s2)CC1 [Example 10, N,N-dimethyl-2-{4-[(2-{7-[methyl(2-thienylsulfonyl)amino]-1H-indol-2-yl}-1,3-thiazol-5-yl)methyl]piperazin-1-yl}acetamide ditrifluoroacetate]
200	COCCOc1cc(N(C)S(=O)(=O)c2ccccn2)c2[nH]c(C3=N[C@@H](CO)CS3)cc2c1 [Example 254, N-[2-[(4S)-4-(hydroxymethyl)-4,5-dihydro-1,3-thiazol-2-yl]-5-(2-methoxyethoxy)-1H-indol-7-yl]-N-methylpyridine-2-sulfonamide]
120	CN(c1cccc2cc(-c3ncc(CN4CCN5C(=O)OCC5C4)s3)[nH]c12)S(=O)(=O)c1cccs1 (stereo not drawn) [Example 229, N-methyl-N-(2-{5-[(3-oxotetrahydro[1,3]oxazolo[3,4-a]pyrazin-7(1H)-yl)methyl]-1,3-thiazol-2-yl}-1H-indol-7-yl)thiophene-2-sulfonamide]
61	CN(c1cccc2cc(C3=NCC(C)(CCN4CCOCC4)S3)[nH]c12)S(=O)(=O)c1cccs1 (stereo not drawn) [Example 200, N-methyl-N-{2-[5-methyl-5-(2-(morpholino)ethyl)-4,5-dihydro-1,3-thiazol-2-yl]-1H-indol-7-yl}thiophene-2-sulfonamide]
